Measurements published in US4243678A, “Acylhydrocarbylaminoalkanoic acids, compositions and uses” (Byk Gulden Lomberg Chemische Fabrik GmbH, priority 1977, dated 1981).
Like-named read-outs stand apart in the source and are kept apart here.

How the values were obtained:
[1] = Determination of toxicity (lethal action on the mouse after intraperitoneal application); type: in vivo; settings: in vivo, ip
Procedure: The toxicity investigations are carried out on female NMRI mice (body weight 22 to 26 g). The animals (5 animals per dose) are given food and water ad lib. Different doses of the substances are administered intraperitoneally. The duration of observation is 14 days. The LD50, i.e. the dose at which 50% of the animals die, is determined graphically from the dose/effect curve.

[2] = Antihepatotoxic effect: duration of hexobarbital sleep of the rat after liver damage by CCl4; settings: rat, in vivo
Procedure: (§1) The compounds to be tested are administered 1 hour prior to the administration of CCl4 orally in a liquid volume of 10 ml/kg.
(§2) The antihepatotoxic effect of the compounds to be tested (sodium salts in aqueous solution) is determined by the reduction of the prolongation of sleeping period caused by the CCl4 liver cell damage in the groups treated, as compared with the prolongation of the sleeping period of the CCl4 control group (=100%). […]

liver damage by CCl4 = experiment: as above; settings: Rattus norvegicus, po; for ED25: read-out: ED25 antihepatotoxic effect (shortens hexobarbital narcosis by 25%); for ED50: read-out: ED50 antihepatotoxic effect (shortens hexobarbital narcosis by 50%)
Procedure: as §1, §2

[3] = Antiulcerogenic (stomach-protective) action, pylorus ligature and acetylsalicylic acid; type: in vivo, rat (female); settings: in vivo, LD50 mouse i.p. / ED50 rat i.d.
Procedure: (§3) The ulcer provocation is carried out on rats which have been made to fast for 24 hours (female, 180 to 200 g) by ligature of the pylorus (under ether narcosis) and the oral application of 100 mg/10 ml/kg acetylsalicylic acid. The administration of the substances was carried out intraduodenally (2.5 ml/kg) immediately after the ligature of the pylorus. The closure of the wound was carried out by means of Michel clamps. 4 hours after this, the animals were autopsied (while inebriated with ether) by dislocation of the atlas, and the stomach was resected. The stomach, opened longitudinally, is fixed on a cork board and, using a stereomicroscope with an enlargement of 10×, the number and size (=diameter) of any ulcers present were determined. The product of the degree of severity (according to the following scale of points) and the number of ulcers was used as the individual ulcer index.
(§4) As a measure of antiulcerogenic effect the reduction in the mean ulcer index of each treated group, as compared with that of the control group (=100%), was used.

stomach ulcer = experiment: as above; type: in vivo, rat (female); settings: 4 h, rat, intraduodenally, read-out: ED50 antiulcerogenic action (dose which reduces the mean ulcer index by 50%)
Procedure: as §3, §4

[4] = Influence on pancreatic secretion of the narcotized rat; type: in vivo, rat (male Sprague-Dawley); settings: in vivo, LD50 mouse i.p. / ED50 rat i.d.
Text: (§5) Male Sprague-Dawley rats (body weight from 250 to 300 g) are narcotized with 1.2 g/kg urethane i.m. Then the abdominal cavity is opened medially, the bile duct is ligatured shortly above the place where it leads into the duodenum and also near to the hepatic duct, and both sections are catheterized towards the liver.
(§6) As in the rat all the pancreatic ducts lead out into the central section of the bile duct; it is possible in this way to discharge the pancreatic secretion separately from the distal (ligatured) section and the bile separately from the proximal section of the bile duct.
(§7) The quantities of pancreatic juice and bile juice obtained are measured at intervals of 30 minutes over a period from 2 hours before to 3 hours after the intraduodenal (V. jugularis externa) administration of the compounds to be tested (quantity of liquid administered 5 ml/kg).
(§8) The body temperature of the animals is maintained at 36° to 38° C. by means of electric blankets and radiation; the temperature is monitored rectally.
(§9) The liquid volumes of the 30-minute fractions after the administration of the substance are related in each case to the quantity of bile or pancreatic juice secreted prior to the application of the substance (=100%, mean of the last two measurements). The maximum percentage increase in the pancreatic or bile secretion is represented in dependence upon dose, and from this the ED50 is determined by interpolation.

pancreatic secretion = experiment: as above; type: in vivo, rat (male Sprague-Dawley); settings: 0.5 h, narcotized rat, i.d., liquid volume
Text: as §5, §6, §7, §8, §9

[5] = system: glucose formation from lactate and pyruvate in isolated perfused liver; experiment: Inhibition of the formation of glucose from lactate and pyruvate in the isolated perfused rat liver; parameters: species or system rat (male Sprague-Dawley); settings: for Glucose formation, % change: isolated perfused liver of fasting rats; for ED50 inhibition of formation of glucose from lactate and pyruvate: from 4 concentrations, 0.02 to 1.00 mmol/liter
Procedure: For this purpose young male Sprague-Dawley rats (160 to 200 g) are used. The rats are kept in cages of up to 5 animals in a temperature-controlled room (23° C.) with a fixed day/night rhythm (12/12 hours).
Food is withheld from the animals for from 20 to 22 hours prior to the operation. They are allowed to take water ad lib. The operation and the perfusion of the liver are carried out using the technique of R. Scholz et al. [Eur. J. Biochem. 38 (1973) 64 to 72]. The perfusion liquid used is Krebs-Henseleit bicarbonate buffer (pH 7.4), which is saturated with an oxygen/carbon dioxide mixture (95/5) and contains 1.6 mmol/liter of L-lactate and 0.2 mmol/liter of pyruvate. The perfusion liquid is pumped into the liver via a cannula inserted into the portal vein. The effluent perfusion liquid is collected via a cannula inserted into the Vena cava. The liver is perfused for about 2 hours. The test compounds are infused for 16 minutes each from the 32nd to the […] after the perfusion in increasing concentrations (0.02 to 1.00 mmol/liter).
Samples of the effluent perfusion liquid are collected at one-minute intervals and analyzed for glucose, lactate and pyruvate (using standard enzymatic methods). The percentages shown in Table VIII relate to the condition occurring before and after the administration of the compounds, the changes caused solely by lactate and pyruvate being set as being equal to 100%.

[6] = Table IV, read-out: TQ (LD50/ED50), antiulcerogenic action
[7] = Table VII, read-out: TQ [LD50/ED50], pancreatic secretion
[8] = 30 min fraction, Table VII, read-out: ED50 pancreatic secretion (dose which brings about an increase in pancreatic secretion of a maximum of 50%)
[9] = Table IX, read-out: TQ LD50/ED50, antiulcerogenic action
[10] = Table X, read-out: TQ LD50/ED50, pancreatic secretion
[11] = 30 minute fraction, Table X, read-out: ED50 pancreatic secretion (dose which brings about an increase in pancreatic secretion by a maximum of 50%)
[12] = 0.2 mmol/liter in the perfusate, Table XIII
[13] = TQ LD50/ED25, antihepatotoxic effect, LD50 mouse i.p. / ED25 rat p.o., Table XI

Row | SMILES | LD50 at 336 h ([1]; mouse, Table IV) [mg/kg] | ED25 (liver damage by CCl4) [mg/kg] | selectivity ratio [3, 6] | ED50 (stomach ulcer; Table IV) [mg/kg] | LD50 at 336 h ([1]; mouse i.p., Table IX) [mg/kg] | selectivity ratio [3, 9] | ED50 (stomach ulcer; Table IX) [mg/kg] | selectivity ratio [4, 10] | ED50 (pancreatic secretion; [11]) [mg/kg] | further results
1 | O=C(O)CCCN(C(=O)c1ccc(Cl)cc1)c1ccc(-c2ccccc2)cc1 [Serial No. 23, 4-[p-chloro-N-(biphenyl-4-yl)benzamido]butyric acid] | 120 | 15 | ~8 | ~15 |  |  |  |  |  | selectivity ratio ([2]; TQ LD50/ED25, antihepatotoxic effect, LD50 mouse i.p. / ED25 rat p.o., Table V): 8; selectivity ratio ([2]; TQ LD50/ED50, antihepatotoxic effect, LD50 mouse i.p. / ED50 rat p.o., Table V): 5.5; ED50 (liver damage by CCl4): 22 mg/kg; selectivity ratio [4, 7]: 120; ED50 (pancreatic secretion; [8]): 1 mg/kg
2 | O=C(O)CCCCN(C(=O)c1ccc(Cl)cc1)c1ccc2c(c1)CCC2 [compound 54] |  |  |  |  | 160 | ≤ 16 | ≥ 10 |  |  | 
3 | CC(C)C(=O)N(CCCCC(=O)O)c1cccc2ccccc12 [compound 51] |  |  |  |  | > 200 | ~20 | < 10 |  |  | 
4 | O=C(O)CCCCN(C(=O)c1ccccc1O)c1ccccc1-c1ccccc1 [Serial No. 32, 5-[o-hydroxy-N-(biphenyl-2-yl)benzamido]valeric acid] | > 200 |  | > 20 | < 10 |  |  |  |  |  | 
5 | CCC(=O)N(CCCC(=O)O)C1CCCc2cc(OC)ccc21 (stereo not drawn) [compound 52] |  |  |  |  | > 200 | > 20 | < 10 | > 200 | < 1 | 
6 | O=C(O)CCCCN(C(=O)c1ccc(Cl)cc1)c1cccc2ccccc12 [Serial No. 47, 5-{p-chloro-[N-(α-naphthyl)]benzamido}valeric acid] |  |  |  |  |  |  |  | 85 | 2 | LD50 at 336 h ([1]; mouse i.p., Table X): 170 mg/kg; Glucose formation, % change [5, 12]: -86%; ED50 inhibition of formation of glucose from lactate and pyruvate ([5]; Table XIII): 31 µg/mL
7 | CC(CCC(=O)O)N(C(=O)c1ccc(Cl)cc1)c1cccc2ccccc12 (stereo not drawn) [Serial No. 45, 4-{p-chloro-[N-(α-naphthyl)]benzamido}valeric acid] |  | ~15 |  |  | 180 | > 18 | < 10 | ~180 | ~1 | selectivity ratio [2, 13]: ~12
8 | CCOc1ccc(N(CCCC(=O)O)C(=O)c2ccc(Cl)cc2)c2ccccc12 [Serial No. 43, 4-{p-chloro-[N-(4-ethoxy-1-naphthyl)]benzamido}butyric acid] |  |  |  |  | 70 | 7 | 10 | 100 | 0.7 | 
9 | CC1(C)[C@@H](OC(=O)CCC(=O)O)CC[C@]2(C)[C@H]3C(=O)C=C4[C@@H]5C[C@@](C)(C(=O)O)CC[C@]5(C)CC[C@@]4(C)[C@]3(C)CC[C@@H]12 [compound 19] | 120 |  | 2.4 | 50 |  |  |  |  |  | 
10 | O=C(O)CCCN(C(=O)c1ccc(Cl)cc1)c1cccc2ccccc12 [Serial No. 38, 4-{p-chloro-[N(α-naphthyl)]benzamido}butyric acid] |  | ~5 |  |  |  |  |  | 56 | 2.5 | LD50 at 336 h ([1]; mouse i.p., Table X): 140 mg/kg; selectivity ratio [2, 13]: ~28; selectivity ratio ([2]; TQ LD50/ED50, antihepatotoxic effect, LD50 mouse i.p. / ED50 rat p.o., Table XI): 3.5; ED50 (liver damage by CCl4): 40 mg/kg; Glucose formation, % change [5, 12]: -48%; ED50 inhibition of formation of glucose from lactate and pyruvate ([5]; Table XIII): 81 µg/mL
11 | O=C(O)CCCCCN(C(=O)c1ccc(Cl)cc1Cl)c1ccccc1-c1ccccc1 [Serial No. 29, 6-[2,4-dichloro-N-(biphenyl-2-yl)benzamido]caproic acid] |  |  |  |  |  |  |  |  |  | LD50 at 336 h ([1]; mouse i.p., Table VII): ~250 mg/kg; Glucose formation, % change ([5]; 0.2 mmole/liter in the perfusate, Table VIII): -93%; ED50 inhibition of formation of glucose from lactate and pyruvate ([5]; Table VIII): 23 µg/mL; selectivity ratio [4, 7]: ~147; ED50 (pancreatic secretion; [8]): 1.7 mg/kg
12 | COc1ccc(N(CCCC(=O)O)C(=O)c2ccc(Cl)cc2)cc1-c1ccccc1 [Serial No. 35, 4-[p-chloro-N-(6-methoxybiphenyl-3-yl)benzamido]butyric acid] | 120 |  | > 12 | < 10 |  |  |  |  |  | selectivity ratio [4, 7]: 80; ED50 (pancreatic secretion; [8]): 1.5 mg/kg
13 | O=C(O)CCCN(C(=O)c1ccc(Cl)c(Cl)c1)c1ccc2c(c1)CCC2 [compound 53] |  | 10 |  |  | 180 | > 18 | < 10 | > 180 | < 1 | selectivity ratio [2, 13]: 18
